Tested on: variants of SARS-CoV-2
Assay: Infection of cells with a SARS-CoV-2 variant in the same manner
Assay type: cell-based
Settings: cells infected with a variant in the same manner

Q: For NCC(=O)CCC(=O)O [5-ALA, 5-aminolevulinic acid], which “inhibitory effect on SARS-CoV-2 infection and/or proliferation (variant)” value is on record?
A: inhibitory effect on SARS-CoV-2 infection and/or proliferation is expected
